In ChEMBL document CHEMBL1151567, “Synthesis and anti HIV-1 activity of new thiadiazepindioxides” (Bioorg Med Chem Lett, 1995):

Experiments:
C8166 [1] = experiment: Antiviral activity was evaluated by inhibition of HIV-1 replication in CD4+ lymphoblastoid cell line infected with HIV/IIIB strain; assay type: functional, cell-based; settings: Homo sapiens
C8166 [2] = experiment: Ratio of CC50 to that of IC50 was determined; assay type: functional
C8166 [3] = experiment: Cytotoxic activity was evaluated in CD4+ lymphoblastoid cell line; assay type: functional; settings: Homo sapiens

Row | SMILES | IC50 (C8166 [1]) | Selectivity index (C8166 [2]) | CC50 (C8166 [3])
1 | Cc1cc2c(cc1Cl)Nc1ncccc1N(C)S2(=O)=O | > 300 µM | – | –
2 | Cc1cc2c(cc1C)N(C)S(=O)(=O)C1=CC=CN(C(C)C)C1=N2 | 0.6 µM | >50 | > 30 µM
3 | CCN1c2ccccc2S(=O)(=O)N(C)c2cccnc21 | > 300 µM | – | –
4 | CC(C)=CCN1Cc2cc(Cl)cc3[nH]c(=S)n(c23)C[C@@H]1C | 0.0015 µM | 22600 | 34 µM
5 | CCN1C=CC=C2C1=Nc1ccccc1S(=O)(=O)N2C | 3.7 µM | 22 | 80 µM
6 | CN1c2cccnc2Nc2ccccc2S1(=O)=O | > 300 µM | – | –
7 | Cc1cc2c(cc1C)N(C)S(=O)(=O)c1cccnc1N2 | 4 µM | >31 | > 125 µM
8 | CCN1C=CC=C2C1=Nc1cc(Cl)c(C)cc1S(=O)(=O)N2C | 0.28 µM | 42 | 12 µM
9 | CCN1C=CC=C2C1=Nc1cc(C)c(C)cc1N(C)S2(=O)=O | 0.33 µM | >90 | > 30 µM
10 | CCN1c2cc(Cl)c(C)cc2S(=O)(=O)N(C)c2cccnc21 | 48 µM | >1 | > 60 µM
11 | Cc1cc2c(cc1C)N(C)S(=O)(=O)c1cccnc1N2C(C)C | 0.032 µM | >1875 | > 60 µM
12 | CCN1c2cc(C)c(C)cc2N(C)S(=O)(=O)c2cccnc21 | 0.04 µM | 3750 | 150 µM
13 | CN1c2cccnc2Nc2ncccc2S1(=O)=O | 7 µM | >17 | > 125 µM
14 | CCN1c2ncccc2N(C)S(=O)(=O)c2cccnc21 | > 300 µM | <1 | 300 µM
15 | O=c1[nH]cnc2c1ncn2[C@H]1CC[C@@H](CO)O1 [DIDANOSINE] | 1 µM | 9000 | 9000 µM
16 | Cc1ccnc2c1NC(=O)c1cccnc1N2C1CC1 [NEVIRAPINE] | 0.04 µM | 8025 | 321 µM
17 | Cc1cn([C@H]2C[C@H](N=[N+]=[N-])[C@@H](CO)O2)c(=O)[nH]c1=O [ZIDOVUDINE] | 0.004 µM | 350000 | 1400 µM
